# Experimental data from patent US9958439B2, “Carbohydrate detection” (RICHTER LIFE SCIENCE DEVELOPMENT AB, priority 2012, dated 2018).
# Like-named read-outs stand apart in the source and are kept apart here.
# Legend:
# [1] = for RFU change (Correlation analysis) / RFU change (Signal deviation with increasing [Carbohydrate]) / λmax change: 3 μM probe; for RFU change (Correlation analysis): probe-specific excitation λ, emission 545 nm; for RFU change (Signal deviation with increasing [Carbohydrate]) / λmax change: spectral analysis, Excitation 300-500, Emission 545; for carbohydrate can be detected and/or differentiated by the LCO: conclusion from change in signal magnitude and/or shift in λmax; for Gradient Parameters (gradient of regression line) / Linear relationship / Quality of Gradient: linear regression
# Summary of the method: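 Each LCO probe at 3 μM was added to two-fold serial dilutions of carbohydrate in dH2O (10–0.039 mg/ml for β-1,3-glucan, cellulose, chitin; 5–0.019 mg/ml for the others), run in triplicate. Excitation spectra were scanned 300–500 nm with emission at 545 nm. Detection was a reproducible λmax and/or RFU shift versus negative control, with linear regression of RFU against concentration.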
# [2] = Summary of the method: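 LCO probes (3 μM) were added to serial two-fold dilutions of carbohydrate suspensions in dH2O, with excitation scanned 300–500 nm and emission at 545 nm. Detection was a reproducible λmax and/or RFU change versus no-carbohydrate control. RFU was regressed linearly against concentration at the λmax or the lowest-background excitation.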
# [3] = remark: listed apart in the source
# Summary of the method: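 LCO probes at 3 μM mixed with serial two-fold carbohydrate dilutions in water (10–0.039 or 5–0.019 mg/ml), run in triplicate. Excitation scanned 300–500 nm with emission at 545 nm; detection based on reproducible λmax or RFU shift against the no-carbohydrate control, with linear regression of RFU on concentration.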
# [4] = for RFU change (Correlation analysis): probe-specific excitation λ, emission 545 nm
# Summary of the method: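 LCO probes at 3 μM mixed with serial two-fold dilutions of carbohydrate in dH2O (10–0.039 or 5–0.019 mg/ml, depending on carbohydrate), in triplicate. Excitation scanned 300–500 nm or fixed per probe (λmax or lowest background), emission at 545 nm. Detection taken as reproducible λmax/RFU shift vs no-carbohydrate control; RFU regressed linearly on concentration.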
# [5] = for RFU change (Correlation analysis): probe-specific excitation λ, emission 545 nm; for carbohydrate can be detected and/or differentiated by the LCO: conclusion from change in signal magnitude and/or shift in λmax; for Gradient Parameters (gradient of regression line) / Linear relationship / Quality of Gradient: linear regression
# Summary of the method: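 LCO probes at 3 μM mixed with serial twofold carbohydrate dilutions in dH2O (10–0.039 or 5–0.019 mg/ml, depending on carbohydrate). Excitation scanned 300–500 nm, emission read at 545 nm; detection defined as reproducible shift in λmax and/or RFU relative to negative control, with linear regression of RFU against concentration.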
# [6] = remark: listed apart in the source
# Summary of the method: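 3 μM of each LCO probe was added to serial two-fold carbohydrate dilutions in water (10–0.039 or 5–0.019 mg/ml). Excitation spectra were scanned 300–500 nm with emission at 545 nm, in triplicate. Detection was defined as a reproducible shift in λmax and/or RFU versus negative control, with linear regression of RFU against concentration.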
# [7] = β-1,3-glucan concentration vs RFU
# [8] = Sodium alginate 5-0.019 mg/ml, 3 μM probe, spectral analysis, Excitation 300-500, Emission 545
# [9] = sodium alginate concentration vs RFU, linear regression
# [10] = glucose concentration vs RFU, linear regression
# [11] = Cellulobiose 5-0.019 mg/ml, 3 μM probe, spectral analysis, Excitation 300-500, Emission 545
# [12] = amylose concentration vs RFU, linear regression
# [13] = cellulobiose concentration vs RFU, linear regression
# [14] = Glycogen 5-0.019 mg/ml, 3 μM probe, spectral analysis, Excitation 300-500, Emission 545
# [15] = Chondroitin Sulfate A 5-0.019 mg/ml, 3 μM probe, spectral analysis, Excitation 300-500, Emission 545
# [16] = Chondroitin Sulfate A concentration vs RFU, linear regression
compound,measurement,setting,value
"Cl.Cl.c1csc(-c2cc(CCn3ccnc3)c(-c3ccc(-c4sc(-c5cccs5)cc4CCn4ccnc4)s3)s2)c1 [pHTIm, penta Hydrogen Thiophene Imidazole]",RFU change (Correlation analysis),[1]; Cellulose 10-[…],Increase
same,RFU change (Signal deviation with increasing [Carbohydrate]),[1]; Cellulose 10-[…],Increase
same,λmax change,[1]; Cellulose 10-[…],Redshift
same,carbohydrate can be detected and/or differentiated by the LCO,[1]; Cellulose,can be detected and/or differentiated
same,RFU change (Correlation analysis),[1]; Chitin 10-[…],Decreases
same,RFU change (Signal deviation with increasing [Carbohydrate]),[1]; Chitin 10-[…],Decrease
same,λmax change,[1]; Chitin 10-[…],Redshift
same,carbohydrate can be detected and/or differentiated by the LCO,[1]; Chitin,can be detected and/or differentiated
same,Gradient Parameters (gradient of regression line),[1]; cellulose concentration vs RFU,3063 ± 564.3
same,Linear relationship,[1]; cellulose concentration vs RFU,Significant
same,Quality of Gradient,[1]; cellulose concentration vs RFU,Positive
same,Gradient Parameters (gradient of regression line),[1]; chitin concentration vs RFU,−383.6 ± 71.4
same,Linear relationship,[1]; chitin concentration vs RFU,Significant
same,Quality of Gradient,[1]; chitin concentration vs RFU,Negative
same,Sensitivity,[1]; to cellulose,Yes
same,Sensitivity,[1]; to chitin,Yes
same,Sensitivity,"[1]; to β-1,3-glucan",No
same,RFU change (Correlation analysis),"[1]; β-1,3-glucan 10-[…]",Decrease
same,RFU change (Signal deviation with increasing [Carbohydrate]),"[1]; β-1,3-glucan 10-[…]",Decrease
same,λmax change,"[1]; β-1,3-glucan 10-[…]",Redshift
same,Gradient Parameters (gradient of regression line),[1]; [7],−177.1 ± 89.6
same,Quality of Gradient,[1]; [7],Horizontal
same,RFU change (Correlation analysis),"[2]; Sodium alginate 5-0.019 mg/ml, 3 μM probe, probe-specific excitation λ, emission 545 nm",Increases
same,RFU change (Signal deviation with increasing [Carbohydrate]),[2]; [8],Increases
same,λmax change,[2]; [8],Redshift
same,carbohydrate can be detected and/or differentiated by the LCO,"[2]; Sodium alginate, conclusion from change in signal magnitude and/or shift in λmax",can be detected and/or differentiated
same,Gradient Parameters (gradient of regression line),[2]; [9],266 ± 29.2
same,Linear relationship,[2]; [9],Significant
same,Quality of Gradient,[2]; [9],Positive
same,Sensitivity,[2]; to sodium alginate,Yes
same,RFU change (Correlation analysis),"[3]; Glucose 5-0.019 mg/ml, 3 μM probe, probe-specific excitation λ, emission 545 nm",Unclear
same,RFU change (Signal deviation with increasing [Carbohydrate]),"[3]; Glucose 5-0.019 mg/ml, 3 μM probe, spectral analysis, Excitation 300-500, Emission 545",Unclear
same,Gradient Parameters (gradient of regression line),[3]; [10],10.9 ± 25.5
same,Quality of Gradient,[3]; [10],Horizontal
same,Sensitivity,[3]; to glucose,No
same,RFU change (Correlation analysis),"[4]; Amylose 5-0.019 mg/ml, 3 μM probe",Decreases
same,RFU change (Signal deviation with increasing [Carbohydrate]),"[4]; Amylose 5-0.019 mg/ml, 3 μM probe, spectral analysis, Excitation 300-500, Emission 545",Decreases
same,carbohydrate can be detected and/or differentiated by the LCO,"[4]; Amylose, conclusion from change in signal magnitude and/or shift in λmax",can be detected and/or differentiated
same,RFU change (Correlation analysis),"[4]; Cellulobiose 5-0.019 mg/ml, 3 μM probe",Unclear
same,RFU change (Signal deviation with increasing [Carbohydrate]),[4]; [11],Increases
same,λmax change,[4]; [11],No change
same,Gradient Parameters (gradient of regression line),[4]; [12],−655 ± 110
same,Linear relationship,[4]; [12],Significant
same,Quality of Gradient,[4]; [12],Negative
same,Gradient Parameters (gradient of regression line),[4]; [13],75.1 ± 61.5
same,Quality of Gradient,[4]; [13],Horizontal
same,Sensitivity,[4]; to amylose,Yes
same,Sensitivity,[4]; to cellulobiose,No
same,RFU change (Correlation analysis),"[5]; Glycogen 5-0.019 mg/ml, 3 μM probe",Increases
same,RFU change (Signal deviation with increasing [Carbohydrate]),[5]; [14],Increases
same,λmax change,[5]; [14],Redshift
same,carbohydrate can be detected and/or differentiated by the LCO,[5]; Glycogen,can be detected and/or differentiated
same,RFU change (Correlation analysis),"[5]; Heparin 5-0.019 mg/ml, 3 μM probe",Increases
same,RFU change (Signal deviation with increasing [Carbohydrate]),"[5]; Heparin 5-0.019 mg/ml, 3 μM probe, spectral analysis, Excitation 300-500, Emission 545",Unclear
same,carbohydrate can be detected and/or differentiated by the LCO,[5]; Heparin,can be detected and/or differentiated
same,Gradient Parameters (gradient of regression line),[5]; glycogen concentration vs RFU,835.8 ± 26.6
same,Linear relationship,[5]; glycogen concentration vs RFU,Significant
same,Quality of Gradient,[5]; glycogen concentration vs RFU,Positive
same,Gradient Parameters (gradient of regression line),[5]; heparin concentration vs RFU,96.3 ± 36.8
same,Linear relationship,[5]; heparin concentration vs RFU,Significant
same,Quality of Gradient,[5]; heparin concentration vs RFU,Positive
same,Sensitivity,[5]; to glycogen,Yes
same,Sensitivity,[5]; to heparin,Yes
same,RFU change (Correlation analysis),"[6]; Chondroitin Sulfate A 5-0.019 mg/ml, 3 μM probe, probe-specific excitation λ, emission 545 nm",Increases
same,RFU change (Signal deviation with increasing [Carbohydrate]),[6]; [15],Increases
same,λmax change,[6]; [15],Redshift
same,Gradient Parameters (gradient of regression line),[6]; [16],1177 ± 203.6
same,Linear relationship,[6]; [16],Significant
same,Quality of Gradient,[6]; [16],Positive
same,carbohydrate can be detected and/or differentiated by the LCO,"[6]; Chondroitin sulfate A, conclusion from change in signal magnitude and/or shift in λmax",can be detected and/or differentiated
same,Sensitivity,[6]; to Chondroitin Sulfate A,Yes
